The text below walks through data of publication PMC5385555, “Molecular basis for the behavioral effects of the odorant degrading enzyme Esterase 6 in Drosophila” (Scientific Reports, 2017).

The target of this assay is T1, LUSH (Drosophila melanogaster, UniProt O02372).
T1 sequence (O02372 30-153): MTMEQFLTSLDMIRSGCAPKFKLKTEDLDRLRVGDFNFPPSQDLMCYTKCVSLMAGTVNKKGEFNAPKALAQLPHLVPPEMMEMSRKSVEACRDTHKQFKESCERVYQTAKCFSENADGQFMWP
The assay is described as follows: fluorescence titration. The conditions noted are these: read-out: dissociation constant. Format: binding. As to the method: fluorescence titration on LUSH | A saturable NPN fluorescence change was recorded by a fluorometer and the dissociation constant

With `c1ccc(Nc2cccc3ccccc23)cc1` [N-phenyl-1-naphthylamine], the Kd was determined as 2.39 µM.
